In US20090221522A1, “METHODS TO CORRECT GENE SET EXPRESSION PROFILES TO DRUG SENSITIVITY” (The Johns Hopkins University, priority 2008, published 2009):

Experiments:
[1] = system: patient-derived xenografts refractory to gemcitabine; assay: Pre-clinical second-line study in xenografts refractory to gemcitabine (TGI); assay type: in vivo, mice; settings: for TGI: treated with gemcitabine (first line)
Experimental: FIG. 11 illustrates a pre-clinical design.
FIG. 12 illustrates validation on the xenografts of FIG. 11 based on prediction according to the present invention. Four xenograft cases were used. […] A case is defined as a responder to the drug treatment if Tumor Growth Inhibition (TGI) is <20%. Negative TGI values indicate tumor regression.
(§1) Relative tumor growth index (TGI) was calculated as TGI=(Ti−T0/Ci−C0) if Ti>T0 (indicates tumor growth inhibition) and TGI=(Ti−T0) if Ti≦T0 (indicates tumor regression). T and C represent tumor size in the treated and control group at the last of experiment, respectively; T0 and C0 represent tumor size in the treated and control group at the start of treatment, respectively.
Seven FDA approved anticancer agents (capecitabine, cisplatin, docetaxel, doxorubicin, etoposide, irinotecan and oxaliplatin) were used as potential second line of drugs for selection according to the present invention. The one-size-fits-all treatment was erlotinib, an FDA approved targeted therapy for advanced pancreatic cancer. See Moore M J, Goldstein D, Hamm J, et al. Erlotinib plus gemcitabine compared with gemcitabine alone in patients with advanced pancreatic cancer: a phase Ill trial of the National Cancer Institute of Canada Clinical Trials Group. J Clin Oncol 25:1960-06 2007. […] Xenograft models of these cases were randomly assigned to (i) control, (ii) erlotinib arm (one-size-fits-all second line treatment) and (iii) molecular mimicry arm (i.e., drug selection according to the present invention). For the molecular mimicry arm, the baseline gene expression profiles of these cases were connected the NCI reference panel using GS-CMAP, and one of the seven anticancer agents was assigned to the case based on comparing the GI50 among these drugs. Molecular mimicry predicted that JH033 and JH034 are sensitive to docetaxel, PANC185 is sensitive to irinotecan and PANC219 is sensitive to doxorubicin. These cases were treated with the molecular mimicry choice of drugs and tumor volumes were measured. At the end of the experiment, xenografts treated with molecular mimicry choice of drugs had higher tumor growth inhibition than their litter mates treated with erlotinib (FIGS. 12 and 13).

[2] = system: direct-patient pancreatic cancer xenografts; assay: Xenograft treatment, relative tumor growth inhibition (TGI); assay type: in vivo, mice
Text: Four- to six-week-old female athymic (nu/nu) mice were purchased from Harlan (Harlan Laboratories, Washington, D.C.). The research protocol was approved by the Johns Hopkins University Animal Use and Care Committee and animals were maintained in accordance to guidelines of the American Association of Laboratory Animal Care. Xenografts obtained from F1 mice were excised and cut into small ˜3×3×3 mm fragments and then implanted subcutaneously in a group of five to six mice for each patient, with two small fragments in each mouse (F2) as described above for the original carcinoma. Half of the rest of the carcinoma was cryopreserved in liquid nitrogen and the other half is processed for biological studies. When the carcinoma reached a size of 1,500 mm^3, they were excised, cut into ˜3×3×3 mm fragments, and transplanted to the final cohort of mice to be treated with the drugs (F3 and successive passages). Further details of the establishment of the direct-patient pancreatic cancer xenografts are described in Rubio-Viqueira B, Jimeno A, Cusatis G, et al. An In vivo Platform for Translational Drug Development in Pancreatic Cancer. Clin Cancer Res 2006 12:4652-61.
Gemcitabine (Eli Lilly, Indianapolis, Ind.) was dissolved in saline. In some embodiments, docetaxel (Sanofi-Aventis, Bridgewater, N.J.) was dissolved in 50% ethanol and 50% DMSO. In other embodiments, docetaxel (Sanofi-Aventis, Bridgewater, N.J.) was dissolved in ethanol/polysorbate 80 as a stock solution and diluted 10-fold in 5% glucose for in vivo studies. Temsirolimus (Wyeth Research, Colleville, Pa.) was dissolved in 10% ethanol, 10% pluronic, and 80% PBS. All drugs were freshly prepared and used at an injection volume of 0.2 mL/20 g body weight. Drug doses and treatment schedules were obtained from published studies.
Xenografts from this second mouse-to-mouse passage (F3) were allowed to grow to a size of ˜200 mm^3, at which time five-to-six mice were randomly assigned to control and treatment groups. […] For docetaxel treatment group, mice were treated with 20 mg/kg once a week via intraperitoneal injection. For temsirolimus treatment group, mice were treated with 20 mg/kg/day via intraperitoneal injection. Mice were treated for 21-28 days, monitored daily for signs of toxicity, and were weighed thrice a week. Tumor size was evaluated thrice a week by caliper measurements using the following formula: tumor volume=[length×width^2]/2 as reported by van de Vijver M J, He Y D, van't Veer L J, et al. A Gene-Expression Signature as a Predictor of Survival in Breast Cancer. N Engl J Med 2002 347:1999-2009.
as §1

[3] = system: Resectable Pancreatic Adenocarcinoma; assay: Disease free survival after adjuvant gemcitabine; assay type: in vivo, human
Experimental: Statistical analysis was performed using software SPSS version 16 (SPSS Inc., Chicago, Ill.). P-values <0.05 were regarded as significant. Disease free survival (DFS) was analyzed using the Kaplan-Meier method and compared with the log-rank test.
The connectivity concept of the present invention can be used with actual patient profiles. Patients were recruited under the Phase II Study of an Individualized Drug Treatment Selection Process Based on a Tumor Xenograft Model for Patients with Resectable Pancreatic Adenocarcinoma (JHOC-J0507 JHOC-05041402, NCT00276744). All patients signed the informed consent of this trial. Twenty-four of the patients with complete follow-up data were included in this study. Direct-patient xenograft cases from the PancXenoBank, Rubio-Viqueira B, Jimeno A, Cusatis G, et al: An In vivo Platform for Translational Drug Development in Pancreatic Cancer. Clin Cancer Res 12:4652-4661, 2006, were also used.
The mean age of diagnosis for these patients is 65 years (range from 41 to 81 years). All patients received gemcitabine as adjuvant chemotherapy. Herrmann R, Bodoky G, Ruhstaller T, et al: Gemcitabine Plus Capecitabine Compared With Gemcitabine Alone in Advanced Pancreatic Cancer: A Randomized, Multicenter, Phase III Trial of the Swiss Group for Clinical Cancer Research and the Central European Cooperative Oncology Group. […] Cancer 85:1261-1268, 1999. […] See Oettle H, Post S, Neuhaus P, et al: Adjuvant Chemotherapy with Gemcitabine vs. Observation in Patients Undergoing Curative-Intent Resection of Pancreatic Cancer: A Randomized Controlled Trial. JAMA 297:267-277, 2007. The median DFS for these patients was 291 days.
Using the methods of the present invention, where a patient is connected to a sensitive cell line, the patient will be predicted as sensitive to gemcitabine and vice versa. This approach achieved an overall prediction accuracy of 71% on these retrospective patient samples. […] The positive predicted value and negative predicted value are 73% and 69%, respectively. […]

Nc1ccn([C@@H]2O[C@H](CO)[C@@H](O)C2(F)F)c(=O)n1 [gemcitabine]
median TGI ([1]; four xenograft cases (PANC185, PANC219, JH033, JH034)): 36.5% | TGI ([1]; xenograft JH033): more than 20% | TGI ([1]; xenograft JH034): more than 20% | TGI ([1]; xenograft PANC185): more than 20% | TGI ([1]; xenograft PANC219): more than 20% | average TGI ([2]; five xenografts connected to gemcitabine sensitive NCI-60 cell lines): −24% | responders (TGI less than −30%, RECIST criterion) ([2]; of thirty xenografts, gemcitabine, PANC194, PANC266, PANC294, PANC140, PANC253): five responders | TGI ([2]; xenograft PANC194, gemcitabine): −63% | median DFS ([3]; all 24 patients, gemcitabine as adjuvant chemotherapy): 291 days | median DFS ([3]; predicted gemcitabine resistant group): 162 days | median DFS ([3]; predicted gemcitabine sensitive group): 491 days
